Consider 14 molecules from US10703748B2, “Diazanaphthalen-3-yl carboxamides and preparation and use thereof” (Samumed, LLC, priority 2017, dated 2020).

pEC50: −log10 of the molar value.

For one experiment, the target named is DYRK1A kinase (Homo sapiens, UniProt Q13627). The experiment is described as follows: DYRK1A kinase activity (Ser/Thr 18 peptide Z-lyte FRET assay).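 Further: kinase activity read as coumarin/fluorescein emission ratio after development step, with unphosphorylated and phosphorylated peptide forms setting 0% and 100% controls, values from dose-response curves.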 Format: biochemical. Conditions: recombinant DYRK1A, 30 μM ATP, one hour at room temperature.
Experiment [1] has as its system SW480 colon carcinoma cells. The experiment is described as follows: Cell viability assay (CellTiter-Glo). To be noted: Homo sapiens; for pEC50: SW480, 96 h; for inhibition at 10 µM: SW480, read-out: percent inhibition at 10 μM.
For a further experiment, the system named is IL-6. As to the kind of experiment: IL-6 inhibition in LPS-stimulated human peripheral blood mononuclear cells (HTRF). Conditions: Homo sapiens, PBMC; for pEC50: 22 h; for inhibition at 10 µM: read-out: percentage in parentheses after EC50 >10.
The test system of experiment [2] is Tau phosphorylation at Ser396 (pSer396). As to the kind of experiment: Tau phosphorylation at Ser396 (pSer396) in SH-SY5Y cells, ELISA / western blot.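 Further: decrease in pSer396 Tau measured in lysates of treated cells by colorimetric ELISA or chemiluminescent western blot, same pSer396 antibody for both.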 It is filed as cell-based, human. Conditions: Homo sapiens; SH-SY5Y cells, overnight (16-18 h); read-out: pSer396 Tau EC50. In general terms: An ELISA detects its analyte on a solid surface through an enzyme-linked reagent.
Experimental: Two days before treatment, cells were seeded onto 96 well plates at 5×10^4 cells/well.
The above synthesized compounds were screened using the cell assay procedure to assess decrease Tau phosphorylation at Ser396 (pSer396) described below.
Cells were lysed with RIPA buffer complemented with phosphatase and protease inhibitors then lysates were spun down at 12,000 g for 10 min to remove any cellular debris.

Experiment [3] relates to Wnt-responsive Sp5-Luc reporter in SW480 colon carcinoma cells. The experiment is described as follows: Screening assay for Wnt activity (Sp5-Luc reporter gene assay). Conditions: Homo sapiens; for pEC50: SW480; for inhibition at 10 µM: SW480, read-out: percent inhibition at 10 μM. For orientation: Reporter assays use an easily measured gene product as a stand-in for the process of interest.

Experiment [4] deals with secreted cytokines TNFα, IL-6 and KC-GRO. As to the kind of experiment: Secreted cytokines in Lipopolysaccharide-stimulated BV-2 cells (Table 9 does not say which cytokine). To be noted: Mus musculus, BV-2, 5 h; read-out: EC50. Format: cell-based, mouse.
Another experiment addresses GSK3β kinase (Homo sapiens, UniProt P49841). The experiment is described as follows: GSK3β kinase activity (Ser/Thr 09 peptide Z-lyte FRET assay). It is filed as biochemical. To be noted: recombinant kinase, 46 μM ATP, one hour at room temperature; read-out: EC50.
The test system of experiment [5] is α-smooth muscle actin (aSMA) positive LL29 cells. The experiment is described as follows: Inhibition of the fibrotic process: αSMA staining in TGF-β1 treated LL29 fibroblasts from IPF patients. Conditions: Homo sapiens, Fibroblast; for pEC50: 96 h; for inhibition at 10 µM: read-out: percentage in parentheses after EC50 >10.

Chain of GSK3β kinase (P49841 whole entry): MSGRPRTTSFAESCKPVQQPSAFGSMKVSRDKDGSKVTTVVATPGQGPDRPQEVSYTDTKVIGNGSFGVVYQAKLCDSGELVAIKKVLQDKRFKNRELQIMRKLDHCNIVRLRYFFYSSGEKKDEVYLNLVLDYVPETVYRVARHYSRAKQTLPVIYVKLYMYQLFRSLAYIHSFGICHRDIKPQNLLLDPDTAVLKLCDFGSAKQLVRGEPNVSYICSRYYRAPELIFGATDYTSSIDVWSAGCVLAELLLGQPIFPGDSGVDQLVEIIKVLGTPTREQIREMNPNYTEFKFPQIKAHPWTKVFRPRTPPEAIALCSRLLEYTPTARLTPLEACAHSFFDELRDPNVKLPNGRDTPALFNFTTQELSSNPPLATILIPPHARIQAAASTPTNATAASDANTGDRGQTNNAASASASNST

A word on the pEC50: it is the negative decadic logarithm of the EC50, by convention in mol/L. With `CN(CC(=O)Nc1cc2nc(-c3cnn(C)c3)ccc2cn1)C1CCC1` [Compound 56, 2-(Cyclobutyl(methyl)amino)-N-(2-(1-methyl-1H-pyrazol-4-yl)-1,6-naphthyridin-7-yl)acetamide], the pEC50 on DYRK1A kinase is 7.68; in experiment [1], below 5.00; with IL-6, below 5.00; in experiment [2], 5.82; in experiment [3], 5.47; in experiment [4], 5.94. Besides, the results for the negative-log EC50 (pEC50) (on GSK3β kinase; in experiment [5]) were 7.23 and 5.29, respectively. Moreover, the inhibition at 10 µM in experiment [1] stood at 35%; in the experiment with IL-6, 6.3%.
Consider `CN1CCN(c2ncc(C(=O)Nc3cc4cc(-c5cnn(C)c5)ncc4cn3)s2)CC1` [Compound 4632, N-(6-(1-methyl-1H-pyrazol-4-yl)-2,7-naphthyridin-3-yl)-2-(4-methylpiperazin-1-yl)thiazole-5-carboxamide], for which the pEC50 is 8.30 at DYRK1A kinase; below 5.00 in experiment [1]; below 5.00 in the experiment on IL-6; 5.10 in experiment [2]; 6.04 in experiment [3]; 6.15 in experiment [4]. The pEC50 on GSK3β kinase was 6.49; in experiment [5] it was below 5.00. In addition, the inhibition at 10 µM in experiment [1] amounted to 40.9%; in the experiment with IL-6, 6.8%; in experiment [5], 35.5%.
For `CNC(=O)c1ccc(C(=O)Nc2ncc3ccc(-c4cn(C)nn4)cc3n2)cn1` [Compound 1278, N^2-Methyl-N^5-(7-(1-methyl-1H-1,2,3-triazol-4-yl)quinazolin-2-yl)pyridine-2,5-dicarboxamide], the pEC50 was 8.15 on DYRK1A kinase; 5.07 in experiment [1]; below 5.00 with IL-6; 5.30 in experiment [2]; 5.43 in experiment [3]; 5.14 in experiment [4]. Further, the negative-log EC50 (pEC50) on GSK3β kinase is 6.87; in experiment [5], below 5.00. The values for the inhibition at 10 µM (in the experiment on IL-6; in experiment [5]) were 3% and 35.9%, respectively.
As to `Cn1cc(-c2cnc3cnc(NC(=O)C4CC4)cc3c2)cn1` [Compound 2722, N-(3-(1-Methyl-1H-pyrazol-4-yl)-1,7-naphthyridin-6-yl) cyclopropanecarboxamide], the pEC50 on DYRK1A kinase was 7.64; in experiment [1], below 5.00; with IL-6, 5.05; in experiment [2], 5.22; in experiment [3] it was below 5.00; in experiment [4], 6.09. Further, the results for the pEC50 (at GSK3β kinase; in experiment [5]) were 6.49 and 6.00, respectively. Besides, the inhibition at 10 µM in experiment [1] was 31%; in experiment [3], 13.7%.
Turning to `Cn1cc(-c2cc3cc(NC(=O)C4CCN(Cc5ncco5)CC4)ncc3cn2)cn1` [Compound 3723, N-(6-(1-Methyl-1H-pyrazol-4-yl)-2,7-naphthyridin-3-yl)-1-(oxazol-2-ylmethyl)piperidine-4-carboxamide], the pEC50 on DYRK1A kinase was 8.70; in experiment [1] it was below 5.00; with IL-6 it was below 5.00; in experiment [2] it was 6.60; in experiment [3] it was 6.07; in experiment [4], 7.03. Further, the pEC50 on GSK3β kinase is 8.00; in experiment [5] it was below 5.00. Moreover, the inhibition at 10 µM was 43.7% in experiment [1], 2.8% in the experiment on IL-6 and 9.1% in experiment [5].
As for `Cn1cc(-c2ccc3cnc(NC(=O)C4CCN(Cc5ncccn5)CC4)cc3n2)cn1` [Compound 99, N-(2-(1-Methyl-1H-pyrazol-4-yl)-1,6-naphthyridin-7-yl)-1-(pyrimidin-2-ylmethyl)piperidine-4-carboxamide], the pEC50 on DYRK1A kinase was 8.05; in experiment [1], below 5.00; in the experiment with IL-6 it was 5.07; in experiment [2] it was 6.01; in experiment [3] it was 5.88; in experiment [4], 6.75. For the same molecule, the pEC50 on GSK3β kinase is 6.74; in experiment [5], 5.39. In addition, the inhibition at 10 µM in experiment [1] was 37%.
For the molecule `Cn1cc(-c2ccc3cnc(NC(=O)C4CCN(S(C)(=O)=O)CC4)cc3n2)cn1` [Compound 71, N-(2-(1-Methyl-1H-pyrazol-4-yl)-1,6-naphthyridin-7-yl)-1-(methylsulfonyl)piperidine-4-carboxamide], the negative logarithm of the EC50 (pEC50) at DYRK1A kinase is 8.52; in experiment [1], below 5.00; in the experiment with IL-6, 5.26; in experiment [2], 6.37; in experiment [3], 6.25; in experiment [4], 7.03. In addition, the pEC50 was 7.74 at GSK3β kinase and 6.38 in experiment [5]. Further, the inhibition at 10 µM in experiment [1] was 40.7%.
In the case of `CC(C)CN1CCC(C(=O)Nc2cc3nc(-c4cnn(C)c4)ccc3cn2)CC1` [Compound 16, 1-Isobutyl-N-(2-(1-methyl-1H-pyrazol-4-yl)-1,6-naphthyridin-7-yl) piperidine-4-carboxamide], the pEC50 is 7.40 on DYRK1A kinase; below 5.00 in experiment [1]; below 5.00 with IL-6; 6.03 in experiment [2]; 5.81 in experiment [3]; 6.95 in experiment [4]. The values for the pEC50 (at GSK3β kinase; in experiment [5]) were 6.56 and 6.60, respectively. Also, the results for the inhibition at 10 µM (in experiment [1]; in the experiment on IL-6) were 45.1% and 52.2%, respectively.
Consider `CN1CCC(C(=O)Nc2cc3cc(-c4cnsc4)ncc3cn2)CC1` [Compound 4319, N-(6-(Isothiazol-4-yl)-2,7-naphthyridin-3-yl)-1-methylpiperidine-4-carboxamide], for which the pEC50 at DYRK1A kinase is 7.41; in experiment [1] it was below 5.00; with IL-6 it was below 5.00; in experiment [2], 6.26; in experiment [3] it was 5.82; in experiment [4], 6.29. The figures for the pEC50 (at GSK3β kinase; in experiment [5]) were 6.70 and 5.79, respectively. Also, the inhibition at 10 µM in experiment [1] was 43%; in the experiment on IL-6 it was 11.4%.
Consider `Cc1ncc(-c2ccc3cnc(NC(=O)[C@H]4CC[C@H](N(C)C)CC4)cc3n2)s1` [Compound 4559, trans-4-(Dimethylamino)-N-(2-(2-methylthiazol-5-yl)-1,6-naphthyridin-7-yl) cyclohexane-1-carboxamide], for which the pEC50 at DYRK1A kinase is 7.85; in experiment [1], below 5.00; with IL-6 it was 5.07; in experiment [2], 5.62; in experiment [3] it was below 5.00; in experiment [4] it was 6.39. For the same molecule, the pEC50 on GSK3β kinase is 6.96; in experiment [5], 6.23. The inhibition at 10 µM in experiment [1] came out at 44.8%; in experiment [3], 40.8%.
In the case of `Cc1cn2c(n1)CN(C(=O)Nc1cc3nc(-c4cnc(C)o4)ccc3cn1)CC2` [Compound 585, 2-Methyl-N-(2-(2-methyloxazol-5-yl)-1,6-naphthyridin-7-yl)-5,6-dihydroimidazo[1,2-a]pyrazine-7(8H)-carboxamide], the pEC50 on DYRK1A kinase is 8.05; in experiment [1] it was 5.57; in the experiment with IL-6, below 5.00; in experiment [2], 6.43; in experiment [3], 5.68; in experiment [4] it was 6.59. Also, the negative-log EC50 (pEC50) at GSK3β kinase was 6.96; in experiment [5], 5.60. Also, the inhibition at 10 µM with IL-6 came out at 9.4%.
As to `Cn1cc(-c2ccc3cnc(NC(=O)C4CCNCC4)cc3n2)cn1` [Compound 11, N-(2-(1-Methyl-1H-pyrazol-4-yl)-1,6-naphthyridin-7-yl)piperidine-4-carboxamide], the pEC50 is 7.85 on DYRK1A kinase; 5.24 in experiment [1]; 5.55 with IL-6; 5.46 in experiment [2]; 5.50 in experiment [3]; 6.03 in experiment [4]. Further, the pEC50 was 7.00 at GSK3β kinase and 5.60 in experiment [5].
Consider `Cn1cc(-c2ccc3cnc(NC(=O)C4CCNCC4)nc3c2)cn1` [Compound 918, N-(7-(1-methyl-1H-pyrazol-4-yl)quinazolin-2-yl)piperidine-4-carboxamide], for which the negative-log EC50 (pEC50) on DYRK1A kinase was 7.21; in experiment [1], below 5.00; with IL-6, below 5.00; in experiment [2] it was below 5.00; in experiment [3] it was below 5.00; in experiment [4] it was below 5.00. Moreover, the pEC50 is 6.63 on GSK3β kinase and below 5.00 in experiment [5]. Moreover, the inhibition at 10 µM in experiment [1] was determined as 10.2%; with IL-6 it was 14.6%; in experiment [3], 5%; in experiment [5] it was 31.2%.
For `Cn1cncc1-c1cc2cc(NC(=O)c3ccc4c(c3)CNC4)ncc2cn1` [Compound 4104, N-(6-(1-Methyl-1H-imidazol-5-yl)-2,7-naphthyridin-3-yl)isoindoline-5-carboxamide], the pEC50 on DYRK1A kinase was 8.52; in experiment [1], 5.11; in the experiment with IL-6, below 5.00; in experiment [2], 5.00; in experiment [3] it was below 5.00; in experiment [4], 5.92. Also, the pEC50 was 6.84 at GSK3β kinase and 5.51 in experiment [5]. Besides, the inhibition at 10 µM with IL-6 turned out to be 5.7%; in experiment [3], 41.3%.
